Type in all cases: binding
The target in experiment [1] is T1, proteins of human Jurkat cell lysate (EF-1alpha isoforms and others) (Homo sapiens, UniProt P00558).
T1 construct: endogenous in cells; host or cells: Jurkat cells
T1 sequence (P00558 1-417): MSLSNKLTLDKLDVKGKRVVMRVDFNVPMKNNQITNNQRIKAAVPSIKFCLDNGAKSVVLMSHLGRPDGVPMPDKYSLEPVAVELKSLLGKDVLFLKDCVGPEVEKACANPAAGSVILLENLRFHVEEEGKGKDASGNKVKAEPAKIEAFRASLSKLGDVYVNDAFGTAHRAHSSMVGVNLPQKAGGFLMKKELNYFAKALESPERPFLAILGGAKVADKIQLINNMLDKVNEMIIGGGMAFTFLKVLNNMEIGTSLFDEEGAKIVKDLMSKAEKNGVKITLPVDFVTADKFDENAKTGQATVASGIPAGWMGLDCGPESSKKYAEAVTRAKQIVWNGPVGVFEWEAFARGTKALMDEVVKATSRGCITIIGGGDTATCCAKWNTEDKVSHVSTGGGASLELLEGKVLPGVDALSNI
Briefly: DARTS with DB-treated intact Jurkat cells, thermolysin, Coomassie staining and mass spectrometry of protected band. The conditions noted are these: DB vs DMSO, mass spectrometry. The text has this: (§1) The experiments above established that DARTS can efficiently test, screen, or verify drug-protein interactions when the protein is available in relatively pure form. For DARTS to be generally useful as a discovery tool, however, applicability to complex protein mixtures (such as cell lysates) would be desirable. […] Given that EF-1 alpha is a highly abundant protein, we first tested whether in the DARTS protocol DB would protect EF-1 alpha from proteolysis and result in a detectable difference.
(§2) For FIGS. 3A and 3C, intact Jurkat cells were treated with DB from 100 pg/mL to 1 μg/mL or DMSO control for 30 min. Cells were lysed (without washing, in these experiments) with M-PER (Pierce) supplemented with protease and phosphatase inhibitors. After centrifugation (14,000 rpm, 15 min), lysates were diluted to the same final volume and protein concentration with M-PER and proteolysed in reaction buffer [50 mM Tris-HCl pH 8.0, 50 mM NaCl, 10 mM CaCl2]. All steps were performed on ice or at 4° C. to help prevent premature protein degradation. Each sample was then quickly warmed to room temperature and proteolysed with 1 μg thermolysin for every 15 μg lysate for 10 min. To stop proteolysis, 0.5 M EDTA (pH 8.0) was added to each sample at a 1:10 ratio, mixed well, and placed on ice.
(§3) Gel bands were cut out and prepared for mass spec analysis with trypsin digestion as described in SI. Peptides were analyzed by LC/MS/MS on a Thermo LTQ-Orbitrap mass spectrometer with an Eksigent LC pump. For quantitative comparison of protein and peptide abundances, MS spectra were analyzed using the differential workflow of Rosetta Elucidator (Rosetta Inpharmatics) (54). Annotation was performed using PeptideTeller and ProteinTeller (see SI).
(§4) The result could indicate lower affinity binding of DB to PGK1, or secondary effects on protein abundance because in this experiment the cells were treated with drug in vivo.
(§5) Proteins were initially identified by searching the spectra against the human International Protein Index database (version 3.46) and the S. cerevisiae Swissprot database (May 2008) using the SEQUEST algorithm (Eng et al. (1994) J Am Soc Mass Spectrom 5: 976-989) integrated into the Bioworks software package. Each peptide met the following criteria: XCorr ≧2 (+1), ≧3 (+2), ≧4 (+3), ≧5 (+4), and DeltaCN>0.1. For quantitative comparison of protein and peptide abundances, MS spectra were analyzed using the differential workflow of the Rosetta Elucidator software system (Rosetta Inpharmatics) (Neubert et al. (2008) J Proteome Res 7: 2270-2279). Annotation was performed using PeptideTeller and ProteinTeller with a minimum probability of 0.99 and predicted error of 0.0. Protein ratio data were generated with a P-value cutoff of 0.01 for all proteins with a peptide number >1. Intensity scaling was performed against the mean of feature signals, with 10% of outliers removed from the baseline dataset. Similar results were obtained in analysis without intensity scaling (FIG. 9A).

The target in experiment [2] is T2, proteins of human Jurkat cell lysate (EF-1alpha isoforms and others) (Homo sapiens, UniProt P06733).
T2 construct: endogenous in cells; host or cells: Jurkat cells
The description is as above. The conditions noted are these: DB vs DMSO, mass spectrometry.
From the text: as §1, §2, §3, §4, §5

Experiment [3] has as its target T3, proteins of human Jurkat cell lysate (EF-1alpha isoforms and others) (Homo sapiens, UniProt P68104).
T3 construct: endogenous in cells; host or cells: Jurkat cells
The description is as above. The conditions noted are these: DB vs DMSO, mass spectrometry.
From the text: as §1, §2, §3, §4, §5

Experiment [4] deals with T4, proteins of human Jurkat cell lysate (EF-1alpha isoforms and others) (Homo sapiens, UniProt Q05639).
T4 construct: endogenous in cells; host or cells: Jurkat cells
Described as above. The conditions noted are these: DB vs DMSO, mass spectrometry.
From the text: as §1, §2, §3, §4, §5

Experiment [5] has as its target T5, proteins of human Jurkat cell lysate (EF-1alpha isoforms and others) (Homo sapiens, UniProt Q13838).
T5 construct: endogenous in cells; host or cells: Jurkat cells
Described as above. The conditions noted are these: DB vs DMSO, mass spectrometry.
From the text: as §1, §2, §3, §4, §5

Experiment [6] addresses T6, proteins of human Jurkat cell lysate (EF-1alpha isoforms and others) (Homo sapiens, UniProt Q9P2R7).
T6 construct: endogenous in cells; host or cells: Jurkat cells
T6 sequence (Q9P2R7 53-463): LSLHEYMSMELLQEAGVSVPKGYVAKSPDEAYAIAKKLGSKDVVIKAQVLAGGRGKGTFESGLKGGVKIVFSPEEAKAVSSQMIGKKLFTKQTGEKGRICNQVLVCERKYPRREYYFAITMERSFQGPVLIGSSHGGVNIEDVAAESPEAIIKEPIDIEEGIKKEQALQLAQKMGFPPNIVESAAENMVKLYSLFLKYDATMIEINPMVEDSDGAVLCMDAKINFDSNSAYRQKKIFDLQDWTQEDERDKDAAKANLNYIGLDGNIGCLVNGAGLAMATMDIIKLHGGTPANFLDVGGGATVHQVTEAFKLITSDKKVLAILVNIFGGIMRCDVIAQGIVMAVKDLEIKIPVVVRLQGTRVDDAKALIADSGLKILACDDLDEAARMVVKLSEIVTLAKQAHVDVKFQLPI
The experiment is described as above. The conditions noted are these: DB vs DMSO, mass spectrometry.
From the text: as §1, §2, §3, §4, §5

Experiment [7] has as its system proteins of human Jurkat cell lysate (EF-1alpha isoforms and others). The experiment is described as above. The conditions noted are these: DB-treated Jurkat cells, 1 μg/mL, FIG. 3A.
From the text: as §1, §2, §3, §4, §5

Experiment [8] deals with T7, EF-1 alpha (Homo sapiens, UniProt P68104).
T7 construct: endogenous in cells; host or cells: Jurkat cells
Briefly: DARTS with DB, detection of EF-1 alpha by immunoblotting. As for the experimental part: FIG. 7 illustrates DARTS with Didemnin B using whole-cell lysates. Lysates from untreated human Jurkat cells were incubated with DMSO control or DB (1 ng/mL, 10 ng/mL, 100 ng/mL, 300 ng/mL, and 1 μg/mL) for 30 min at room temperature. Each sample was then split into two, which underwent thermolysin proteolysis, or mock digestion, respectively, followed by western blot analysis. Protection can be seen starting at 100 ng/mL.
Examination of the protected band and the matching gel region of the control lane by mass spectrometry confirmed that EF-1 alpha was the primary protein present at higher abundance in the DB-treated sample (FIG. 3B). […] The generality of this approach is further supported by experiments using diverse protein-drug pairs ranging from nano- to micro-molar: mTOR-rapamycin, COX-2celecoxib, and SCF E3 ubiquitin ligase-inhibitor (FIG. 8). Furthermore, DARTS is not enzyme specific, and much higher overall digestion efficiency can be achieved using other proteases while retaining protection of the target protein (see Example 2 and FIG. 9).
For FIGS. 3A and 3C, intact Jurkat cells were treated with DB from 100 pg/mL to 1 μg/mL or DMSO control for 30 min. […]
For FIG. 7, human Jurkat cells were lysed in M-PER (Pierce) supplemented with protease and phosphatase inhibitors. Protein concentration was determined by BCA Protein Assay kit (Pierce). […]

The text below walks through data of patent US8703438B2, “Ligand binding stabilization method for drug target identification” (The Regents of the University of California, priority 2008, dated 2014).

Molecules are shown by their SMILES.

T7 sequence (P68104 2-462): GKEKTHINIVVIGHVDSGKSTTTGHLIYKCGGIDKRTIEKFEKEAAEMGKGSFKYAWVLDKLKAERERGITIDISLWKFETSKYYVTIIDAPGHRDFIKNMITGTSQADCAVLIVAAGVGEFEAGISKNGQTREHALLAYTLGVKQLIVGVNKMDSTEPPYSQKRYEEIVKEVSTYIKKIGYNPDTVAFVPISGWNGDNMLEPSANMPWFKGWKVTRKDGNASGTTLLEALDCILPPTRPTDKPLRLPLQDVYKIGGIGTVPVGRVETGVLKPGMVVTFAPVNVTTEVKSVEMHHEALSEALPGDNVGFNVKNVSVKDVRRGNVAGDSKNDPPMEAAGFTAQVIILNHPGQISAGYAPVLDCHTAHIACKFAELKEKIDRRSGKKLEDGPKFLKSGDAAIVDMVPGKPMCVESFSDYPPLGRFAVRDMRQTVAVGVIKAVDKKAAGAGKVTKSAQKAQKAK
T5 sequence (Q13838 whole entry, canonical isoform): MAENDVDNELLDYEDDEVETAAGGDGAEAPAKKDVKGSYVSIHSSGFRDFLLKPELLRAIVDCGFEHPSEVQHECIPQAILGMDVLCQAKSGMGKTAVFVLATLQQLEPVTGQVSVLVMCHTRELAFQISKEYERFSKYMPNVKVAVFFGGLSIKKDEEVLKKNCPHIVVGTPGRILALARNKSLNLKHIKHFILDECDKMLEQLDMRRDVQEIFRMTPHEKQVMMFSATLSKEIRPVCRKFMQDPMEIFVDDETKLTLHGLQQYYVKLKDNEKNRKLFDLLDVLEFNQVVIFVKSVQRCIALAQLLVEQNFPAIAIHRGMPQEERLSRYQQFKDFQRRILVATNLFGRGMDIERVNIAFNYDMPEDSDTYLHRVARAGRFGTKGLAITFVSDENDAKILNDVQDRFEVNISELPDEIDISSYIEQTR
T2 sequence (P06733 whole entry, canonical isoform): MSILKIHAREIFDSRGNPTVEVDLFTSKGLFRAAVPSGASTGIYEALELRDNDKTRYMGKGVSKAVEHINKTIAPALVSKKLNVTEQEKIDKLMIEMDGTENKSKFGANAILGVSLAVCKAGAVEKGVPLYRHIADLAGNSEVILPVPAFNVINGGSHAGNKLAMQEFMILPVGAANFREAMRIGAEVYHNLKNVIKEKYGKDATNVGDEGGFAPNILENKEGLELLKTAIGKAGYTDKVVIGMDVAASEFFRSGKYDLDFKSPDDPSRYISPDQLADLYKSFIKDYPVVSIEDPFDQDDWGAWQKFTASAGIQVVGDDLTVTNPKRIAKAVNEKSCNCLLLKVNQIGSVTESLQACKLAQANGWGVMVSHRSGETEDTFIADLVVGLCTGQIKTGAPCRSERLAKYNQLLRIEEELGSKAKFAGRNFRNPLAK
T3 sequence (P68104 whole entry, canonical isoform): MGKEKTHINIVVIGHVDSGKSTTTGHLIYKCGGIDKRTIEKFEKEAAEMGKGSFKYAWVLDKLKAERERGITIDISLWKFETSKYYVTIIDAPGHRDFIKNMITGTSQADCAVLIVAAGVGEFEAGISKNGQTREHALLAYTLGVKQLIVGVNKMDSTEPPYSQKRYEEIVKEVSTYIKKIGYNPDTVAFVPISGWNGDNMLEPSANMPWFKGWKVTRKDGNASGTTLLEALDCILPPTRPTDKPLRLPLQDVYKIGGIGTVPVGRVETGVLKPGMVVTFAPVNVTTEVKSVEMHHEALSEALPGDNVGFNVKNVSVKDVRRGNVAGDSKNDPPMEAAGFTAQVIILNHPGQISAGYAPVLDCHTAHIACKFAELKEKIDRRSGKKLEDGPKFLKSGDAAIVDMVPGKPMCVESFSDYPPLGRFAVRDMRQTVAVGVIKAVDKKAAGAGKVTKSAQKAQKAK
T4 sequence (Q05639 whole entry, canonical isoform): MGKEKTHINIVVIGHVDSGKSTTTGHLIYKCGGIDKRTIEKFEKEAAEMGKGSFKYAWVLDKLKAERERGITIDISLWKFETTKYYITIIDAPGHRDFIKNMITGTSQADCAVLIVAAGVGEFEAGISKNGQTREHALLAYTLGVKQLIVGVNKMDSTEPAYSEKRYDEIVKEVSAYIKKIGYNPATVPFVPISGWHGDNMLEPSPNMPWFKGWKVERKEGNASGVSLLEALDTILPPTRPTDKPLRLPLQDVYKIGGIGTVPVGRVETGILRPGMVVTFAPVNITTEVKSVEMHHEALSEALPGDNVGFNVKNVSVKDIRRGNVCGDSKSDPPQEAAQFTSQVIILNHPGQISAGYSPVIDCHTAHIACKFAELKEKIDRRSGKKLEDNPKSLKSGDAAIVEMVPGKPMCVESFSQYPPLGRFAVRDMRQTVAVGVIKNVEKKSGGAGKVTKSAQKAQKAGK

In the case of `CC[C@H](C)[C@H]1NC(=O)[C@@H](NC(=O)[C@@H](CC(C)C)N(C)C(=O)[C@@H]2CCCN2C(=O)C(C)O)[C@@H](C)OC(=O)[C@H](Cc2ccc(OC)cc2)N(C)C(=O)[C@@H]2CCCN2C(=O)[C@H](CC(C)C)NC(=O)[C@@H](C)C(=O)[C@H](C(C)C)OC(=O)C[C@@H]1O` (stereo partly drawn) [DB, didemnin B], the “enrichment of PGK1 in protected band” value in experiment [1] is reported as 2.4 fold. Besides, the “change of ENO1 in protected band (depleted)” value in experiment [2] is reported as −1.8 fold. Besides, the “enrichment of EEF1A1 in protected band” value in experiment [3] is 18.7 fold. Besides, in experiment [4], the “enrichment of EEF1A2 in protected band” value was 21.7 fold. In addition, in experiment [5], the “enrichment of BAT1 in protected band” value was determined as 7.5 fold. For the same compound, the “enrichment of SUCLA2 in protected band” value in experiment [6] was 11.7 fold. Also, the “protected band on Coomassie-stained gel after thermolysin” value in experiment [7] is “strong protected band”. The “concentration at which protection starts” value in experiment [8] (Jurkat lysates incubated in vitro 30 min, thermolysin, western blot, FIG. 7) is reported as 100 ng/mL. For the same compound, the “proteolytic protection of EF-1 alpha by immunoblotting” value in experiment [8] (intact cells treated and lysates incubated in vitro) is recorded as “concentration dependent proteolytic protection”.
